According to patent US20240116985A1, “STAPLED PEPTIDES AND METHODS THEREOF” (priority 2020, published 2024):
In brackets after ≈: the same amount, converted by molar mass. Like-named read-outs stand apart in the source and are kept apart here.

How the values were obtained:
Solubility in PBS = assay type: physicochemical
Procedure, shortened: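 The PBS solution was ultracentrifuged and the supernatant analyzed by HPLC. Its peak area was divided by that of a 50 μM peptide DMSO reference injection and multiplied by 50 uM to give solubility.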

[1] = biological target: T1, full-length beta-Catenin (Uniprot ID P35222) (Homo sapiens, UniProt P35222); assay: Fluorescence polarization IC50 (beta-catenin / 5FAM-TCF4 10-53 competition); assay type: binding
T1 construct: 10 nM full-length beta-Catenin (Uniprot ID P35222)
T1 sequence (P35222 1-781): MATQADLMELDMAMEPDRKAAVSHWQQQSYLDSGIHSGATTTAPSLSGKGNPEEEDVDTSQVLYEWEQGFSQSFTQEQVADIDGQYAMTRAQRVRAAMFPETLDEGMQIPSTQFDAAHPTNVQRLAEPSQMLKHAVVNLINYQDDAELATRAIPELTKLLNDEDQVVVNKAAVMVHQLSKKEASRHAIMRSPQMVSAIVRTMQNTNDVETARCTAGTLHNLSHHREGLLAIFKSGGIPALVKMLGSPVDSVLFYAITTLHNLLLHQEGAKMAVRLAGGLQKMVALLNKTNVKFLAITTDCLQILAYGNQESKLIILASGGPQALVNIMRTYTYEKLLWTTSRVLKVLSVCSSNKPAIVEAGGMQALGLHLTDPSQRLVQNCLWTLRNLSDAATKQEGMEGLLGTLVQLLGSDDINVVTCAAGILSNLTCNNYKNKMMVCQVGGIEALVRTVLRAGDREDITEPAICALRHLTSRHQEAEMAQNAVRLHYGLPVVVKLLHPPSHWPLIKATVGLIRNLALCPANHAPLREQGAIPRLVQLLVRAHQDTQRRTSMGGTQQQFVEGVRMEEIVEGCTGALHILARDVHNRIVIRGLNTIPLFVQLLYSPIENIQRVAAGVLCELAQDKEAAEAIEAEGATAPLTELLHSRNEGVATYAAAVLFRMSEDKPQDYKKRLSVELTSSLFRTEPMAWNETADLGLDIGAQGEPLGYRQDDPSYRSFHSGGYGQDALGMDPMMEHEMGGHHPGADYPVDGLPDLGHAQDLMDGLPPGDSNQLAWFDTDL

CHI Log D procedure = assay type: physicochemical; settings: for CHI Log D: pH 7.4; for chromatographic logD: pH 7.4, CHI Log D
[2] = fluorescence polarization, read-out: beta-Catenin FP IC50
[3] = fluorescence polarization, beta-catenin, read-out: FP EC50

Row | SMILES | Solubility (Solubility in PBS) [µM] | IC50 [1, 2] [nM] | IC50 ([1]; read-out: FP EC50) [nM] | CHI Log D (CHI Log D procedure) | IC50 [1, 3] [nM] | IC50 ([1]; read-out: beta-Catenin FP IC50) [nM] | Solubility (Solubility in PBS; Solubility (uM)) [µM] | chromatographic logD (CHI Log D procedure)
1 | CC(=O)N1CCC[C@]12CC=CCCCC1(CCCC=CCCCCCC[C@@](C)(C(=O)N[C@@H](Cc3ccccc3)C(=O)N[C@@H](Cc3csc4ccccc34)C(=O)N[C@@H](CCC(N)=O)C(N)=O)NC(=O)[C@H](CCC(N)=O)NC(=O)[C@H](Cc3ccccc3)NC(=O)[C@H](C)NC(=O)[C@H](C)NC(=O)[C@H](CCC(=O)O)NC(=O)[C@H](CC(=O)O)NC1=O)NC(=O)[C@H](CC(F)F)NC(=O)[C@H](CC(=O)O)NC2=O (stereo partly drawn) [I-503, Ac-PL3-Asp-HF2CA-B5-Asp-Glu-Ala-Ala-Phe-Gln-S8-Phe-BztA-Gln-NH2] | – | 84 | – | – | – | – | 33 (≈ 62.4 µg/mL) | 2.09
2 | CC(=O)N1CCC[C@]12CC=CCCCC1(CCCC=CCCCCCC[C@@](C)(C(=O)N[C@@H](Cc3ccccc3)C(=O)N[C@@H](Cc3csc4ccccc34)C(=O)N[C@@H](CCC(N)=O)C(N)=O)NC(=O)[C@H](C(C)C)NC(=O)[C@H](Cc3ccccn3)NC(=O)[C@H](C)NC(=O)[C@H](C)NC(=O)[C@H](CCC(=O)O)NC(=O)[C@H](CC(=O)O)NC1=O)NC(=O)[C@H](C)NC(=O)[C@H](CC(=O)O)NC2=O (stereo partly drawn) [I-387, Ac-PL3-Asp-Ala-B5-Asp-Glu-Ala-Ala-2pyrA-Val-S8-Phe-BztA-Gln-NH2] | 48 (≈ 87 µg/mL) | 2620 | – | 2.136 | 2620 | – | – | –
3 | CC[C@@H](C)[C@@H]1NC(=O)[C@H](CC(=O)O)NC(=O)[C@]2(CC=CCCCC3(CCCC=CCCCCCC[C@@](C)(C(=O)N[C@@H](Cc4ccccc4)C(=O)N[C@@H](Cc4csc5ccccc45)C(=O)N[C@@H](CCC(N)=O)C(N)=O)NC(=O)[C@H](CC(N)=O)NC(=O)[C@H](Cc4ccccc4)NC(=O)[C@H](C)NC(=O)[C@H](C)NC(=O)[C@H](CCC(=O)O)NC(=O)[C@H](CC(=O)O)NC3=O)NC1=O)CCCN2C(C)=O (stereo partly drawn) [I-475, Ac-PL3-Asp-aIle-B5-Asp-Glu-Ala-Ala-Phe-Asn-S8-Phe-BztA-Gln-NH2] | 43 (≈ 80.4 µg/mL) | 102 | 102 | 2.277 | – | – | – | –
4 | CC[C@H](C)[C@@H]1NC(=O)[C@H](CC(=O)O)NC(=O)[C@]2(CC=CCCCC3(CCCC=CCCCCCC[C@@](C)(C(=O)N[C@@H](Cc4ccccc4)C(=O)N[C@@H](Cc4csc5ccccc45)C(=O)N[C@@H](CCC(N)=O)C(N)=O)NC(=O)[C@H](CC(N)=O)NC(=O)[C@H](Cc4ccccc4)NC(=O)[C@H](C)NC(=O)[C@H](C)NC(=O)[C@H](CC(=O)O)NC(=O)[C@H](CC(=O)O)NC3=O)NC1=O)CCCN2C(C)=O (stereo partly drawn) [I-468, Ac-PL3-Asp-Ile-B5-Asp-Asp-Ala-Ala-Phe-Asn-S8-Phe-BztA-Gln-NH2] | 41 (≈ 76.1 µg/mL) | 27 | 27 | 2.292 | – | – | – | –
5 | CC[C@H](C)[C@@H]1NC(=O)[C@H](CC(=O)O)NC(=O)[C@]2(CC=CCCCC3(CCCC=CCCCCCC[C@@](C)(C(=O)N[C@@H](Cc4ccccc4)C(=O)N[C@@H](Cc4csc5ccccc45)C(=O)N[C@@H](Cc4c[nH]cn4)C(N)=O)NC(=O)[C@H](CCC(N)=O)NC(=O)[C@H](Cc4cccs4)NC(=O)[C@H](C)NC(=O)[C@H](C)NC(=O)[C@H](CC(=O)O)NC(=O)[C@H](CC(=O)O)NC3=O)NC1=O)CCCN2C(C)=O (stereo partly drawn) [I-489, Ac-PL3-Asp-Ile-B5-Asp-Asp-Ala-Ala-2Thi-Gln-S8-Phe-BztA-His-NH2] | – | 57 | – | – | – | – | 36 (≈ 67.8 µg/mL) | 2.34
6 | CC(=O)N1CCC[C@]12CC=CCCCC1(CCCC=CCCCCCC[C@@](C)(C(=O)N[C@@H](Cc3ccccc3)C(=O)N[C@@H](Cc3csc4ccccc34)C(=O)N[C@@H](CCC(N)=O)C(N)=O)NC(=O)[C@H](CC(N)=O)NC(=O)[C@H](Cc3cccs3)NC(=O)[C@H](C)NC(=O)[C@H](C)NC(=O)[C@H](CCC(=O)O)NC(=O)[C@H](CC(=O)O)NC1=O)NC(=O)[C@H](C)NC(=O)[C@H](CC(=O)O)NC2=O (stereo partly drawn) [I-446, Ac-PL3-Asp-Ala-B5-Asp-Glu-Ala-Ala-2Thi-Asn-S8-Phe-BztA-Gln-NH2] | 44 (≈ 80.7 µg/mL) | 130 | 130 | 1.97 | – | – | – | –
7 | CC(=O)N1CCC[C@]12CC=CCCCC1(CCCC=CCCCCCC[C@@](C)(C(=O)N[C@@H](Cc3ccccc3)C(=O)N[C@@H](Cc3csc4ccccc34)C(=O)N[C@@H](CCC(N)=O)C(N)=O)NC(=O)[C@H](CC(N)=O)NC(=O)[C@H](Cc3ccccc3)NC(=O)[C@H](C)NC(=O)[C@H](C)NC(=O)[C@H](CCC(=O)O)NC(=O)[C@H](CC(=O)O)NC1=O)NC(=O)[C@H](CC1CCCCC1)NC(=O)[C@H](CC(=O)O)NC2=O (stereo partly drawn) [I-619, Ac-PL3-Asp-Cha-B5-Asp-Glu-Ala-Ala-Phe-Asn-S8-Phe-BztA-Gln-NH2] | 47 (≈ 89.7 µg/mL) | 44 | 44 | 2.677 | – | – | – | –

Other lines, results leading:

Row | Solubility (Solubility in PBS) [µM] | IC50 [1, 2] [nM] | IC50 ([1]; read-out: FP EC50) [nM] | CHI Log D (CHI Log D procedure) | IC50 [1, 3] [nM] | IC50 ([1]; read-out: beta-Catenin FP IC50) [nM] | Solubility (Solubility in PBS; Solubility (uM)) [µM] | chromatographic logD (CHI Log D procedure) | SMILES
8 | 38 (≈ 66.9 µg/mL) | 82 | 82 | 2.765 | – | – | – | – | CC(=O)N1CCC[C@]12CC=CCCCC1(CCCC=CCCCCCC[C@@](C)(C(=O)N[C@@H](Cc3ccsc3)C(=O)N[C@@H](Cc3csc4ccccc34)C(N)=O)NC(=O)[C@H](CC(N)=O)NC(=O)[C@H](Cc3ccccc3)NC(=O)[C@H](C)NC(=O)[C@H](C)NC(=O)[C@H](CCC(=O)O)NC(=O)[C@H](CC(=O)O)NC1=O)NC(=O)[C@H](CC(C)(C)C)NC(=O)[C@H](CC(=O)O)NC2=O (stereo partly drawn) [I-718, Ac-PL3-Asp-Npg-B5-Asp-Glu-Ala-Ala-Phe-Asn-S8-3Thi-BztA-NH2]
9 | 43 (≈ 83.8 µg/mL) | – | – | 1.791 | 2020 | 2020 | – | – | CCN(CC(=O)O)C[C@@H]1NC(=O)[C@H](CC(=O)O)NC(=O)C2(CCCC=CCCCOC(=O)N3CC[C@@](C(=O)N[C@@H](Cc4ccsc4)C(=O)N[C@@H](Cc4csc5ccccc45)C(=O)N[C@@H](CCC(N)=O)C(N)=O)(C3)NC(=O)[C@H](CO)NC(=O)[C@H](Cc3ccccc3)NC(=O)[C@H](C)NC(=O)[C@H](C)NC1=O)CCCC=CC[C@]1(CCCN1C(C)=O)C(=O)N[C@@H](CC(=O)O)C(=O)N[C@@H](CC(C)(C)C)C(=O)N2 (stereo partly drawn) [I-966, Ac-PL3-Asp-Npg-B5-Asp-EtGA-Ala-Ala-Phe-Ser-PyrS2-3Thi-BztA-Gln-NH2]
10 | – | 57 | – | – | – | – | 48 (≈ 96.3 µg/mL) | 2.99 | CC(=O)N1CCC[C@]12CC=CCCCC1(CCCC=CCCCCCC[C@@](C)(C(=O)N[C@@H](Cc3ccccc3)C(=O)N[C@@H](Cc3csc4ccccc34)C(=O)N[C@@H](CCC(N)=O)C(N)=O)NC(=O)[C@H](CC(N)=O)NC(=O)[C@H](Cc3ccccc3)NC(=O)[C@H](C)NC(=O)[C@H](C)NC(=O)[C@H](CN(CC(=O)O)CC(F)(F)F)NC(=O)[C@H](CC(=O)O)NC1=O)NC(=O)[C@H](CC1CCCCC1)NC(=O)[C@H](CC(=O)O)NC2=O (stereo partly drawn) [I-706, Ac-PL3-Asp-Cha-B5-Asp-TfeGA-Ala-Ala-Phe-Asn-S8-Phe-BztA-Gln-NH2]
11 | 10 (≈ 19.1 µg/mL) | – | – | – | – | 7 | – | 2.42 | CC(=O)N1CCC[C@]12CC=CCCCC1(CCCC=CCCCOC(=O)N3CC[C@@](C(=O)N[C@@H](Cc4ccsc4)C(=O)N[C@@H](Cc4csc5ccccc45)C(=O)N[C@@H](Cc4c[nH]cn4)C(N)=O)(C3)NC(=O)[C@H](CC(N)=O)NC(=O)[C@H](Cc3ccccc3)NC(=O)[C@H](C)NC(=O)[C@H](C)NC(=O)[C@H]([C@@H](C)O)NC(=O)[C@H](CC(=O)O)NC1=O)NC(=O)[C@H](CC(C)(C)C)NC(=O)[C@H](CC(=O)O)NC2=O (stereo partly drawn) [I-845, Ac-PL3-Asp-Npg-B5-Asp-Thr-Ala-Ala-Phe-Asn-PyrS2-3Thi-BztA-His-NH2]
12 | 43 (≈ 84.3 µg/mL) | – | – | 2.87 | 127 | 127 | – | – | CC(=O)N1CCC[C@]12CC=CCCCC1(CCCC=CCCCCCC[C@@](C)(C(=O)N[C@@H](Cc3ccccc3Cl)C(=O)N[C@@H](Cc3csc4ccccc34)C(=O)N[C@@H](CCO)C(N)=O)NC(=O)[C@H](CO)NC(=O)[C@H](Cc3ccccc3)NC(=O)[C@H](C)NC(=O)[C@H](C)NC(=O)[C@H](CN(CC(=O)O)CC(F)(F)F)NC(=O)[C@H](CC(=O)O)NC1=O)NC(=O)[C@H](CC(C)(C)C)NC(=O)[C@H](CC(=O)O)NC2=O (stereo partly drawn) [I-998, Ac-PL3-Asp-Npg-B5-Asp-TfeGA-Ala-Ala-Phe-Ser-S8-2C1F-BztA-Hse-NH2]
13 | 47 (≈ 94.1 µg/mL) | – | – | 2.013 | 2430 | 2430 | – | – | CC(=O)N1CCC[C@]12CC=CCCCC1(CCCC=CCCCOC(=O)N3CC[C@@](C(=O)N[C@@H](Cc4ccsc4)C(=O)N[C@@H](Cc4csc5ccccc45)C(=O)N[C@@H](C(N)=O)[C@H](C)O)(C3)NC(=O)[C@H](CC(N)=O)NC(=O)[C@H](Cc3ccccc3)NC(=O)[C@H](C)NC(=O)[C@H](C)NC(=O)[C@H](CN(CC(=O)O)CC(F)(F)F)NC(=O)[C@H](CC(=O)O)NC1=O)NC(=O)[C@H](CC(C)(C)C)NC(=O)[C@H](CC(=O)O)NC2=O (stereo partly drawn) [I-948, Ac-PL3-Asp-Npg-B5-Asp-TfeGA-Ala-Ala-Phe-Asn-PyrS2-3Thi-BztA-dThr-NH2]
